The record followed here is patent US20260248799A1, “COMBINATIONS OF RETINALDEHYDE DEHYDROGENASE 1 (RALDH1) INHIBITORS AND IMMUNOSTIMULATORS AND METHODS USING SAME” (The Trustees of the University of Pennsylvania, priority 2023, published 2026).

Assay [1] deals with T1, Adrenergic β2 (Homo sapiens, UniProt P07550).
T1 construct: Eurofins Cerep Panlabs (contract panel)
Kind of assay: Safetyscreen: Adrenergic β2. It is filed as binding. Conditions: read-out: % Inh. Adrenergic β2.

Assay [2] has as its target T2, Histamine H2 (Homo sapiens, UniProt P25021).
T2 construct: purchased Eurofins Cereps Panlabs
Kind of assay: Safetyscreen: Histamine H2. It counts as binding. The following applies: read-out: % Inh. Histamine H2.

The test system of assay [3] is Glutamate, AMPA. Kind of assay: Safetyscreen: Glutamate, AMPA. Conditions: 10 μM. It counts as binding, rat.
For assay [4], the target named is T3, Monoamine Oxidase MAO-B (Homo sapiens, UniProt P27338).
T3 construct: Eurofins Cerep Panlabs (contract panel)
Kind of assay: Safetyscreen: MAO-B. It counts as biochemical. The following applies: read-out: % Inh. Monoamine Oxidase MAO-B.

Assay [5] addresses T4, Tachykinin NK1 (Homo sapiens, UniProt P25103).
T4 construct: Eurofins Cereps Panlabs (contract panel)
Kind of assay: Safetyscreen: Tachykinin NK1. It is filed as binding. Conditions: read-out: % Inh. Tachykinin NK1.

For assay [6], the system named is Glutamate, Kainate. Kind of assay: Safetyscreen: Glutamate, Kainate. The following applies: 10 μM. It is filed as binding, rat.
The subject of assay [7] is Glutamate, NMDA, Phencyclidine. Kind of assay: Safetyscreen: NMDA, Phencyclidine. It counts as binding, rat. Conditions: 10 μM.
Assay [8] concerns the target T5, Muscarinic M2 (Homo sapiens, UniProt P08172).
T5 construct: Eurofins Cereps Panlabs (contract panel)
As to the kind of experiment: Safetyscreen: Muscarinic M2. The following applies: read-out: % Inh. Muscarinic M2. It is filed as binding.

The target of assay [9] is T6, Cannabinoid CB2 (Homo sapiens, UniProt P34972).
T6 construct: purchased Eurofins Cereps Panlabs
As to the kind of experiment: Safetyscreen: CB2. It is filed as binding. The following applies: read-out: % Inh. Cannabinoid CB2.

The test system of assay [10] is SNU398 cells. As to the kind of experiment: RT-qPCR of Raldh1, Raldh2 and Raldh3 transcripts in SNU398 cells. Conditions: SNU398, 24 hours. It counts as cell-based, human. The procedure: FIG. 21A: Transcript levels (RT-qPCR) of Raldh1, Raldh2 and Raldh3 in SNU398 cells treated with different concentrations of C86 or C91 for 24 hours. FIG. 21B: Homology modeling identifies differences in amino acid residues between human and murine RALDH1 at sites predicted to bind RALDH1-INH. FIG. 21C: SNU398 cells were treated with various concentrations of C86 or C91 for 24 hours. Cell viability was measured by flow cytometry (FCM) with 7-AAD staining (Y-axis indicates percentage of 7-AAD negative cells).
Total RNA from mouse tissue samples and in vitro cultured cells was isolated using GenElute Mammalian Total RNA Miniprep Kit (Sigma) following the manufacturer's protocol. Total RNA from human FFPE samples was isolated by using Quick-RNA FFPE Miniprep Kit (Zymo Research) using the manufacturer's protocol. 1000 ng of RNA was used for reverse transcription using High Capacity RNA to cDNA Kit (Life Technologies). The cDNA product was 10× diluted. 2.5 μL of this cDNA was used for qPCR for each sample. Three or more replicates were used for each reaction. […] Expression fold was calculated as 2^−(CT target gene−CT housekeeping gene). Quantitative PCRs were run on a Viia 7 real time PCR system (ThermoFisher). The following target and housekeeping genes were measured using the commercially available TaqMan probes (ThermoFisher): […]

For assay [11], the target named is T7, Adenosine A1 (Homo sapiens, UniProt P30542).
T7 construct: Eurofins Cerep Panlabs (contract panel)
Kind of assay: Safetyscreen: Adenosine A1. It counts as binding. The following applies: read-out: % Inh. Adenosine A1.

Assay [12] has as its target T8, Nicotinic Acetylcholine α1, Bungarotoxin (Homo sapiens, UniProt P02708+P07510+Q07001).
T8 construct: Eurofins Cereps Panlabs (contract panel)
As to the kind of experiment: Safetyscreen: Nicotinic Acetylcholine α1. It is filed as binding. Conditions: read-out: % Inh. Nicotinic Acetylcholine α1, Bungarotoxin.

For assay [13], the target named is T9, Melanocortin MC4 (Homo sapiens, UniProt P32245).
T9 construct: Eurofins Cereps Panlabs (contract panel)
As to the kind of experiment: Safetyscreen: MC4. It is filed as binding. The following applies: read-out: % Inh. Melanocortin MC4.

The target in assay [14] is T10, Chemokine CCR1 (Homo sapiens, UniProt P32246).
T10 construct: purchased Eurofins Cereps Panlabs
As to the kind of experiment: Safetyscreen: CCR1. It is filed as binding. The following applies: read-out: % Inh. Chemokine CCR1.

Assay [15] addresses T11, Opiate κ(OP2, KOP) (Homo sapiens, UniProt P41145).
T11 construct: Eurofins Cereps Panlabs (contract panel)
Kind of assay: Safetyscreen: Opiate κ. It is filed as binding. The following applies: read-out: % Inh. Opiate κ(OP2, KOP).

T5 sequence (P08172 whole entry): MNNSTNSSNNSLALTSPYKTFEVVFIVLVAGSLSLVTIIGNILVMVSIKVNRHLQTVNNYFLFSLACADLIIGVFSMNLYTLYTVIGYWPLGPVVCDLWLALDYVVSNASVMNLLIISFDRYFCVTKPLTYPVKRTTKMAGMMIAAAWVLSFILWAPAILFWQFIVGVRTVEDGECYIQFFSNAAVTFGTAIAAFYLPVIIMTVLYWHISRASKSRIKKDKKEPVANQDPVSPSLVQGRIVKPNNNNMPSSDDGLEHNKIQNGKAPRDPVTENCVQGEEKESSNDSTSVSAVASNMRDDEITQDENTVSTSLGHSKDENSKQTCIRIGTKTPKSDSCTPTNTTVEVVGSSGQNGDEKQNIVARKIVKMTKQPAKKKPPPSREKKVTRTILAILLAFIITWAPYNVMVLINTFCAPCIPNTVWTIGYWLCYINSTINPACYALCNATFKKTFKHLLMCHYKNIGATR
T2 sequence (P25021 whole entry): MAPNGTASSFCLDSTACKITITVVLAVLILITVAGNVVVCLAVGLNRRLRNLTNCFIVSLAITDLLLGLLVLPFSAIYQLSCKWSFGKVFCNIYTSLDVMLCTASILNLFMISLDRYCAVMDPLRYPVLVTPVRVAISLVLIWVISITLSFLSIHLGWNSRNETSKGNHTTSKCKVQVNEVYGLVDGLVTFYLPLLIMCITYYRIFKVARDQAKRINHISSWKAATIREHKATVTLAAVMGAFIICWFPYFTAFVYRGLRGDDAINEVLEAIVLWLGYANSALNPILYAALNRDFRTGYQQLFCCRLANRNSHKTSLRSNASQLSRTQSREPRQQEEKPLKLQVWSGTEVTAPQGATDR
T6 sequence (P34972 whole entry): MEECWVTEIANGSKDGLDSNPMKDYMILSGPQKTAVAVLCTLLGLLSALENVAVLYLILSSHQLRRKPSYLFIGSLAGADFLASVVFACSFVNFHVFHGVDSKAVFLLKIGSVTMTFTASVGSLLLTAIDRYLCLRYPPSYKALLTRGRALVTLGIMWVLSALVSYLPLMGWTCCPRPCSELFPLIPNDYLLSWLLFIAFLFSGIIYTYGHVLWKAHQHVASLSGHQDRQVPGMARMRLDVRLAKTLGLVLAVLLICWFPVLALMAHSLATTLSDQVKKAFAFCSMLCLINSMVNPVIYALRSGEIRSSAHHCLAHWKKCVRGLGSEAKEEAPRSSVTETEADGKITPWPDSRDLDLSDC
T8 sequence (P11230 24-501): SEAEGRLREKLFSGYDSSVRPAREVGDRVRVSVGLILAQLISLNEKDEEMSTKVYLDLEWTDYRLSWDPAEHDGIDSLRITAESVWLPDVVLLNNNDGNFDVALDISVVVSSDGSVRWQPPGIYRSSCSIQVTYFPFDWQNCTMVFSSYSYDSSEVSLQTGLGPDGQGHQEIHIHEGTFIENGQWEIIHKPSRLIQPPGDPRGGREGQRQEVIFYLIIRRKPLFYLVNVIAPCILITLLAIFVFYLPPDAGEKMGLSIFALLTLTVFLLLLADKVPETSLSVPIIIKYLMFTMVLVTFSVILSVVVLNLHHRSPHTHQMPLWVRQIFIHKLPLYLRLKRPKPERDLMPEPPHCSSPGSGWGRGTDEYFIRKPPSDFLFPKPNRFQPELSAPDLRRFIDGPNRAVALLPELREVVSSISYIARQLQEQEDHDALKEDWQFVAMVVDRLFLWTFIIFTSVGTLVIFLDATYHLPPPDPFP
T8 sequence (P02708 21-457): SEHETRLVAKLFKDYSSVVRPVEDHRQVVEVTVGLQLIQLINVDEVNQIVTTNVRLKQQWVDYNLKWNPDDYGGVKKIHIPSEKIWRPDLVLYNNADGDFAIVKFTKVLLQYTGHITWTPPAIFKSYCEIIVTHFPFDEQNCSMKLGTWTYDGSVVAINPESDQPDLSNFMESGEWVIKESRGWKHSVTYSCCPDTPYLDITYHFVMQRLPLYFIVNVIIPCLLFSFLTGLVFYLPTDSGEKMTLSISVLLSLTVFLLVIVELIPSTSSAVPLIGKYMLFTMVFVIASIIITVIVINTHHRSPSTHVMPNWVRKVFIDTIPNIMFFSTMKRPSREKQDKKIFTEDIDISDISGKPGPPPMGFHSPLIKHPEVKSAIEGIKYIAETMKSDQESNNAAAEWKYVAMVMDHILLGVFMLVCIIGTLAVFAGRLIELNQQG
T8 sequence (Q07001 22-517): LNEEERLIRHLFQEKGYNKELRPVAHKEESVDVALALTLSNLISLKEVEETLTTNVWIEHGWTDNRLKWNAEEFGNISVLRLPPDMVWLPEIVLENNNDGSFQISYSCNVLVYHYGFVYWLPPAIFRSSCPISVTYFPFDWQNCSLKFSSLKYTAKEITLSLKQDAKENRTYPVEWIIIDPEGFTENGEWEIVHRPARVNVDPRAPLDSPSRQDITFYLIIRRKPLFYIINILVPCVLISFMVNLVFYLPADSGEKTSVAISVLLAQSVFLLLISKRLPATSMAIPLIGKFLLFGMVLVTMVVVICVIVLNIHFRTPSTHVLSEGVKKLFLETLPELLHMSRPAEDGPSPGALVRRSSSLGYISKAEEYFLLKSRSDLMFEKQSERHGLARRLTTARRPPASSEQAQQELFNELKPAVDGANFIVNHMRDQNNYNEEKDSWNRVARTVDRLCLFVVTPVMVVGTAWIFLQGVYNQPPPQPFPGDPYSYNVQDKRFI
T8 sequence (P07510 23-517): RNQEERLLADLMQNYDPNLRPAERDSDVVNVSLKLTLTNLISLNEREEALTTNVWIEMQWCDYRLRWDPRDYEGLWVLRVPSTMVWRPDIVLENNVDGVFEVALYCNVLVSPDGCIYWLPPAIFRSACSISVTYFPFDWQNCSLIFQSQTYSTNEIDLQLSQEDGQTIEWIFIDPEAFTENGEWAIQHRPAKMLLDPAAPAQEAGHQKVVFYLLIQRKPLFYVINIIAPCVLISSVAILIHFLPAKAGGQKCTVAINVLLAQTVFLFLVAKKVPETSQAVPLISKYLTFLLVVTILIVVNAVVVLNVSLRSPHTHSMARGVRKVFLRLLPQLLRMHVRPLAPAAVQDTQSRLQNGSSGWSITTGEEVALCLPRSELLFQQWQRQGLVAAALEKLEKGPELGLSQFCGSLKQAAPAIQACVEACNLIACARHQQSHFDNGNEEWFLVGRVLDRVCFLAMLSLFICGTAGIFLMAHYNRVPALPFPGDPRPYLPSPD
T9 sequence (P32245 whole entry): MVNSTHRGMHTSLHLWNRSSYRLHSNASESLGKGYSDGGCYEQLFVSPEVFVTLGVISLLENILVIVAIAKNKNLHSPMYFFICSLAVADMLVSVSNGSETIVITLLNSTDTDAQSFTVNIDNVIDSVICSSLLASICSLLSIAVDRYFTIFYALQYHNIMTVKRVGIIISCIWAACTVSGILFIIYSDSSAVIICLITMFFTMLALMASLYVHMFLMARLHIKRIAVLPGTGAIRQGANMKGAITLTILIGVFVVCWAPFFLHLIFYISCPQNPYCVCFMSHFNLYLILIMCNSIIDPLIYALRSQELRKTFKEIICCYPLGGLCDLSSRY
T4 sequence (P25103 whole entry): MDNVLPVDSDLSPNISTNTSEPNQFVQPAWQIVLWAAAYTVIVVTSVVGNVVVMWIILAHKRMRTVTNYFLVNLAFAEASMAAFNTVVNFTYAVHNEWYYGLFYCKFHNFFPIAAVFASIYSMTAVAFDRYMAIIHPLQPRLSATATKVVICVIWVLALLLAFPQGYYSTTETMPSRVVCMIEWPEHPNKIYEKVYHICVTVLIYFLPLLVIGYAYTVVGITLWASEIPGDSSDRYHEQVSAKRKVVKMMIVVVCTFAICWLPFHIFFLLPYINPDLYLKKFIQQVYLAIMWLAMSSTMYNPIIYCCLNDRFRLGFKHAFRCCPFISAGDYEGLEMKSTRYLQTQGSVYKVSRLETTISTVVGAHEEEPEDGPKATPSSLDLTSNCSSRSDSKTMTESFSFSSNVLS
T7 sequence (P30542 whole entry): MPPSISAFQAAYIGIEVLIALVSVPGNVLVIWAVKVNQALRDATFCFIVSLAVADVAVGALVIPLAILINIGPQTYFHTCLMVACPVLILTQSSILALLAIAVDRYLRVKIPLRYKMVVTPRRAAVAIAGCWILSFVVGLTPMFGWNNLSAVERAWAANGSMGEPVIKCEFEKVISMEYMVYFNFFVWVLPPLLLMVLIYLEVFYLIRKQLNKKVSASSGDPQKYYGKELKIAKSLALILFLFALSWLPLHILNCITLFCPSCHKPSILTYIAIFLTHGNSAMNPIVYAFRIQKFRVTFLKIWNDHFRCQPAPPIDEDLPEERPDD
T3 sequence (P27338 whole entry): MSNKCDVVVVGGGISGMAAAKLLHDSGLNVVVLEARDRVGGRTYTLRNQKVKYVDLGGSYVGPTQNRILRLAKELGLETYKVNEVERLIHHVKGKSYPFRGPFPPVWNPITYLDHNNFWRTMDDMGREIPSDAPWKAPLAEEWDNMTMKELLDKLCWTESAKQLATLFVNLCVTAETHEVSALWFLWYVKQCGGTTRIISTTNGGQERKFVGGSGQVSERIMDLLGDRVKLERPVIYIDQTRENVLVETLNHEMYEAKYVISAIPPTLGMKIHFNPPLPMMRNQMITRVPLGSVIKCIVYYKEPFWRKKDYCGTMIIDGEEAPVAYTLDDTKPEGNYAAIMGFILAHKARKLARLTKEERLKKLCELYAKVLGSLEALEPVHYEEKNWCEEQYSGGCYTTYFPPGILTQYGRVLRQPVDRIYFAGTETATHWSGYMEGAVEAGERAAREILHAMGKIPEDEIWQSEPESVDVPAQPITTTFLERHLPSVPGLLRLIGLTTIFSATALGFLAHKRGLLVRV

Take `CS(=O)(=O)N1CCN(C(=O)c2cnc3ccc(F)cc3c2N2CCC(C#N)(c3ccccc3)CC2)CC1` [Compound C-86, 1-(6-fluoro-3-(4-(methylsulfonyl)piperazine-1-carbonyl)quinolin-4-yl)-4-phenylpiperidine-4-carbonitrile]: the inhibition at 10 µM in assay [1] was 11%; in [2], -3%; in assay [4], 4%; in assay [5], 37%; in assay [8], 4%; in [9], 21%. Moreover, the inhibition at 10 µM in assay [11] worked out at 4%; in [12] it was 2%; in assay [13], 13%; in [14] it was 18%; in assay [15], 41%. In addition, the “% Inh. Glutamate, AMPA” value in assay [3] is listed as 0%. Also, the “% Inh. Glutamate, Kainate” value in [6] was determined as 11%. For the same compound, the “% Inh. Glutamate, NMDA, Phencyclidine” value in [7] amounted to 5%. For the same compound, the “transcription of other RALDH isozymes” value in [10] is given as “did not lead to compensatory increases in transcription”.
